In general, pEC50 refers to the EC50 on a negative log10 scale, so that one unit is a factor of ten. A high value points to a small EC50.

We go through 24 molecules from US8796256B2 (Janssen Pharmaceutica NV, priority 2010, dated 2014).

pEC50: −log10 of the molar value.

This assay concerns the target T1, ERR1 (also known as ERR-α or ERR-1) (Homo sapiens, UniProt P11474).
T1 sequence (P11474 193-421 limits assumed): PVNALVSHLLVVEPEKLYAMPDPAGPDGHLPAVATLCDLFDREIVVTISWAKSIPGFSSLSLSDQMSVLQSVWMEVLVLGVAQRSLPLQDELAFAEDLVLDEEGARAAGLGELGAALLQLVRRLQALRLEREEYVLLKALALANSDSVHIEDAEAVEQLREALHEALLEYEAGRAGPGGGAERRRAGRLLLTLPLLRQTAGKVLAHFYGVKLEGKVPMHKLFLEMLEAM
The assay is described as follows: TR-FRET assay (disruption of co-activator peptide binding to ERR1 LBD). It is filed as biochemical. The following applies: 6 nM 6His-ERR1LBD, 6 nM GST-SRC-2 peptide; average of 3 independent experiments. Put shortly:
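His-tagged ERR1 ligand-binding domain and GST-labelled SRC-2 peptide, each 6 nM, equilibrated at 25° C for 4-18 h in Tris pH 8/Hepes/KCl/DTT/delipidated BSA buffer. Compound-induced loss of co-activator binding read as Eu cryptate→XL665 energy transfer; values from hyperbolic curve fits averaged over 3 independent runs.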
(TR-FRET usually uses a lanthanide donor and a delayed reading to cut background.)
Take `CN1CCC(=O)C(N2C(=O)S/C(=C\c3ccc4c(cnn4Cc4ccc(Cl)cc4C(F)(F)F)c3)C2=O)C1` (stereo not drawn) [Compound 344, (5Z)-5-({1-[4-Chloro-2-(trifluoromethyl)benzyl]-1H-indazol-5-yl}methylidene)-3-(1-methyl-4-oxopiperidin-3-yl)-1,3-thiazolidine-2,4-dione]: the pEC50 is 7.40.

For the molecule `CN(C)CCCN1C(=O)S/C(=C\c2ccc3c(cnn3Cc3ccc(C(F)(F)F)cc3C(F)(F)F)c2)C1=O` [Compound 6, (5Z)-5-[(1-{[2,4-Bis(trifluoromethyl)-phenyl]methyl}-1H-indazol-5-yl)methylidene]-3-[3-(dimethylamino)-propyl]-1,3-thiazolidine-2,4-dione], the pEC50 is 7.46.

`O=C1S/C(=C\c2ccc3c(cnn3Cc3ccc(Cl)cc3C(F)(F)F)c2)C(=O)N1C[C@@H]1CN(CCO)CCO1` [Compound 187, (5Z)-5-({1-[4-Chloro-2-(trifluoromethyl)benzyl]-1H-indazol-5-yl}methylidene)-3-{[(2S)-4-(2-hydroxyethyl)morpholin-2-yl]methyl}-1,3-thiazolidine-2,4-dione] gave a pEC50 of 7.57.

For the molecule `O=C1S/C(=C\c2ccc3c(cnn3Cc3ccc(Cl)cc3C(F)(F)F)c2)C(=O)N1Cc1ccccn1` [Compound 137, (5Z)-5-({1-[4-Chloro-2-(trifluoromethyl)benzyl]-1H-indazol-5-yl}methylidene)-3-(pyridin-2-ylmethyl)-1,3-thiazolidine-2,4-dione], the pEC50 is 7.18.

`CN(C)CCN1C(=O)S/C(=C\c2ccc3c(cnn3Cc3ccc(C(F)(F)F)cc3C(F)(F)F)c2)C1=O` [Compound 7, (5Z)-5-[(1-{[2,4-Bis(trifluoromethyl)-phenyl]methyl}-1 H-indazol-5-yl)methylidene]-3-[2-(dimethylamino)-ethyl]-1,3-thiazolidine-2,4-dione] showed a negative logarithm of the EC50 (pEC50) of 7.48.

With `O=C1S/C(=C\c2ccc3c(cnn3Cc3ccc(Cl)cc3C(F)(F)F)c2)C(=O)N1Cc1c[nH]nn1` [Compound 85, (5Z)-5-({1-[4-Chloro-2-(trifluoromethyl)benzyl]-1H-indazol-5-yl}methylidene)-3-(1H-1,2,3-triazol-4-ylmethyl)-1,3-thiazolidine-2,4-dione], the pEC50 was 6.87.

For `CC(C)N1CC[C@@H](N2C(=O)S/C(=C\c3ccc4c(cnn4Cc4ccc(C(F)(F)F)cc4C(F)(F)F)c3)C2=O)[C@H](F)C1` (relative stereo) [Compound 331, (5Z)-5-({1-[2,4-Bis(trifluoromethyl)benzyl]-1H-indazol-5-yl}methylidene)-3-[trans-3-fluoro-1-(1-methylethyl)piperidin-4-yl]-1,3-thiazolidine-2,4-dione], the pEC50 was 6.62.

`O=C(O)c1ccc(CN2C(=O)S/C(=C\c3ccc4c(cnn4Cc4ccc(Cl)cc4C(F)(F)F)c3)C2=O)o1` [Compound 380, 5-{[(5Z)-5-({1-[4-Chloro-2-(trifluoromethyl)benzyl]-1H-indazol-5-yl}methylidene)-2,4-dioxo-1,3-thiazolidin-3-yl]methyl}furan-2-carboxylic acid] showed a pEC50 of 7.82.

For `O=C(O)CN1CCC[C@H]1CN1C(=O)S/C(=C\c2ccc3c(cnn3Cc3ccc(Cl)cc3C(F)(F)F)c2)C1=O` [Compound 151, [(2S)-2-{[(5Z)-5-({1-[4-Chloro-2-(trifluoromethyl)benzyl]-1H-indazol-5-yl}methylidene)-2,4-dioxo-1,3-thiazolidin-3-yl]methyl}pyrrolidin-1-yl]acetic acid], the negative-log EC50 (pEC50) is 7.52.

In the case of `N[C@H](CN1C(=O)S/C(=C\c2ccc3c(cnn3Cc3ccc(Cl)cc3C(F)(F)F)c2)C1=O)c1ccccc1` [Compound 161, (5Z)-3-[(2S)-2-Amino-2-phenylethyl]-5-({1-[4-chloro-2-(trifluoromethyl)benzyl]-1H-indazol-5-yl}methylidene)-1,3-thiazolidine-2,4-dione], the negative-log EC50 (pEC50) is 7.14.

As for `CN1C[C@H](F)C[C@H]1CN1C(=O)S/C(=C\c2ccc3c(cnn3Cc3ccc(Cl)cc3C(F)(F)F)c2)C1=O` [Compound 193, (5Z)-5-({1-[4-Chloro-2-(trifluoromethyl)benzyl]-1H-indazol-5-yl}methylidene)-3-{[(2S,4R)-4-fluoro-1-methylpyrrolidin-2-yl]methyl}-1,3-thiazolidine-2,4-dione], the pEC50 is 6.80.

In the case of `N=C(N)NOCCN1C(=O)S/C(=C\c2ccc3c(cnn3Cc3ccc(C(F)(F)F)cc3C(F)(F)F)c2)C1=O` [Compound 103, 1-{2-[(5Z)-5-({1-[2,4-Bis(trifluoromethyl)benzyl]-1H-indazol-5-yl}methylidene)-2,4-dioxo-1,3-thiazolidin-3-yl]ethoxy}guanidine], the negative-log EC50 (pEC50) is 7.37.

Regarding `O=C1S/C(=C\c2ccc3c(cnn3Cc3ccc(Cl)cc3C(F)(F)F)c2)C(=O)N1[C@@H]1CNCC[C@@H]1F` (relative stereo) [Compound 199, (5Z)-5-({1-[4-Chloro-2-(trifluoromethyl)benzyl]-1H-indazol-5-yl}methylidene)-3-(cis-4-fluoropiperidin-3-yl)-1,3-thiazolidine-2,4-dione], the pEC50 was 7.82.

Molecule `O=C1S/C(=C\c2ccc3c(cnn3Cc3ccc(Cl)cc3C(F)(F)F)c2)C(=O)N1C[C@H]1CN2CCOC[C@H]2CO1` [Compound 204, (5Z)-5-({1-[4-Chloro-2-(trifluoromethyl)benzyl]-1H-indazol-5-yl}methylidene)-3-[(3R,9aS)-hexahydro-1H-[1,4]oxazino[3,4-c] [1,4]oxazin-3-ylmethyl]-1,3-thiazolidine-2,4-dione] had a pEC50 of 7.34.

The molecule `O=C1S/C(=C\c2ccc3c(ccn3Cc3ccc(F)cc3C(F)(F)F)c2)C(=O)N1CCN1CCOCC1` [Compound 249, (5Z)-5-[(1-{[4-Fluoro-2-(trifluoromethyl)phenyl]methyl}-1H-indol-5-yl)methylidene]-3-(2-morpholin-4-ylethyl)-1,3-thiazolidine-2,4-dione] showed a pEC50 of 6.46.

Molecule `O=C1S/C(=C\c2ccc3c(cnn3Cc3ccc(C(F)(F)F)cc3C(F)(F)F)c2)C(=O)N1C[C@@H]1COCCN1` [Compound 197, (5Z)-5-({1-[2,4-Bis(trifluoromethyl)benzyl]-1H-indazol-5-yl}methylidene)-3-[(3R)-morpholin-3-ylmethyl]-1,3-thiazolidine-2,4-dione] had a pEC50 of 7.19.

In the case of `CN1CCC(N2C(=O)S/C(=C\c3ccc4c(cnn4Cc4ccc(Cl)cc4C(F)(F)F)c3)C2=O)CC1` [Compound 135, (5Z)-5-({1-[4-Chloro-2-(trifluoromethyl)benzyl]-1H-indazol-5-yl}methylidene)-3-(1-methylpiperidin-4-yl)-1,3-thiazolidine-2,4-dione], the negative logarithm of the EC50 (pEC50) is 7.72.

On to `Cc1nn(Cc2ccc(Cl)cc2C(F)(F)F)c2ccc(/C=C3\SC(=O)N(CC(=O)NS(C)(=O)=O)C3=O)cc12` [Compound 44, 2-[(5Z)-5-({1-[4-Chloro-2-(trifluoromethyl)benzyl]-3-methyl-1H-indazol-5-yl}methylidene)-2,4-dioxo-1,3-thiazolidin-3-yl]-N-(methylsulfonyl)acetamide], for which the pEC50 is 7.14.

Molecule `O=C1S/C(=C\c2ccc3c(cnn3Cc3ccc(Cl)cc3C(F)(F)F)c2)C(=O)N1CCNS(=O)(=O)C(F)(F)F` [Compound 55, N-{2-[(5Z)-5-({1-[4-Chloro-2-(trifluoromethyl)benzyl]-1H-indazol-5-yl}methylidene)-2,4-dioxo-1,3-thiazolidin-3-yl]ethyl}-1,1,1-trifluoromethanesulfonamide] gave a pEC50 of 7.00.

On to `CCN1CC[C@@H](N2C(=O)S/C(=C\c3ccc4c(c3)c(C)nn4Cc3ccc(Cl)cc3C(F)(F)F)C2=O)[C@H](F)C1` (relative stereo) [Compound 334, (5Z)-5-({1-[4-Chloro-2-(trifluoromethyl)benzyl]-3-methyl-1H-indazol-5-yl}methylidene)-3-[trans-1-ethyl-3-fluoropiperidin-4-yl]-1,3-thiazolidine-2,4-dione], for which the pEC50 was 7.32.

In turn, `COC[C@@H](N)CN1C(=O)S/C(=C\c2ccc3c(cnn3Cc3ccc(Cl)cc3C(F)(F)F)c2)C1=O` [Compound 168, (5Z)-3-[(2S)-2-Amino-3-methoxypropyl]-5-({1-[4-chloro-2-(trifluoromethyl)benzyl]-1H-indazol-5-yl}methylidene)-1,3-thiazolidine-2,4-dione] had a pEC50 of 7.54.

In turn, `O=C1S/C(=C\c2ccc3c(cnn3Cc3ccc(Cl)cc3C(F)(F)F)c2)C(=O)N1CCN1CC[C@H](F)C1` [Compound 2, (5Z)-5-({1-[4-Chloro-2-(trifluoromethyl)benzyl]-1H-indazol-5-yl}methylidene)-3-{2-[(3S)-3-fluoro-pyrrolidin-1-yl]ethyl}-1,3-thiazolidine-2,4-dione] gave a pEC50 of 6.73.

For `CN1CCN(N2C(=O)S/C(=C\c3ccc4c(cnn4Cc4ccc(C(F)(F)F)cc4C(F)(F)F)c3)C2=O)CC1` [Compound 350, (5Z)-5-({1-[2,4-Bis(trifluoromethyl)benzyl]-1H-indazol-5-yl}methylidene)-3-(4-methylpiperazin-1-yl)-1,3-thiazolidine-2,4-dione], the pEC50 is 7.42.

In turn, `COCCN1CCC(N2C(=O)S/C(=C\c3ccc4c(cnn4Cc4ccc(Cl)cc4C(F)(F)F)c3)C2=O)CC1` [Compound 147, (5Z)-5-({1-[4-Chloro-2-(trifluoromethyl)benzyl]-1H-indazol-5-yl}methylidene)-3-[1-(2-methoxyethyl)piperidin-4-yl]-1,3-thiazolidine-2,4-dione] showed a pEC50 of 7.44.
